The record followed here is US20060063736A1, “Compositions and methods for inhibiting mucin-type O-linked glycosylation” (priority 2004, published 2006).

What is called IC50 is the concentration needed to halve the response being measured. The low end stands for greater potency in that assay, the high end for weaker potency in that assay.

The test system of test [1] is HEK 293T cells. As to the kind of experiment: TUNEL staining of HEK 293T cells (apoptosis). The note with it: 100 μM, 24 h. Type of test: cell-based, human. The protocol: (§1) HEK 293T cells were seeded at 20,000 cells/mL in a 24-well plate (Costar) fit with glass cover slips (Fisher). After 24 h of incubation with 100 μM 1-68A, cells were washed twice with PBS (pH 7.4) and fixed with 4% paraformaldehyde-PBS for 1 h at rt. The cells were washed twice with PBS and incubated with permeabilization solution (0.1% Triton X-100 in 0.1% sodium citrate, freshly prepared) for 2 min on ice. After the cells were washed twice with PBS, 50 μL of TUNEL reaction mixture (1:10 dilution, Boehringer Mannheim) was added. The plate was covered with parafilm to avoid evaporative loss and incubated in a humidified atmosphere for 1 h at 37° C. in the dark. The cells were then rinsed three times with PBS and blocked with 2% BSA in PBST (PBS, 0.05% Tween 20) for 30 min at rt. Following one wash with PBS, the cells were incubated with 100 μL of FITC-jacalin (4 μg/mL in PBST) for 1 h at 37° C. in the dark. […] Slides were analyzed by fluorescence microscopy (Zeiss, using Openlab software).
(§2) To determine if the inhibition of O-linked glycosylation and induction of apoptosis by 1-68A and 2-68A were specific to Jurkat cells, the effects of 1-68A on human embryonic kidney (HEK) 293T cells were evaluated. In this case, O-linked glycans on the cell surface were monitored by staining with jacalin, a lectin that binds core 1 structures (Galβ1,3-GalNAcα1-Ser/Thr). […]

In test [2] the target is T1, rppGalNAcT-7 (Rattus norvegicus, UniProt Q9R0C5).
T1 construct: plasmids encoding truncated secreted ppGalNAcTs-1 to −5, -7, -10 and -11; made in house; host or cells: COS-7
T1 sequence (Q9R0C5 30-657 limits assumed): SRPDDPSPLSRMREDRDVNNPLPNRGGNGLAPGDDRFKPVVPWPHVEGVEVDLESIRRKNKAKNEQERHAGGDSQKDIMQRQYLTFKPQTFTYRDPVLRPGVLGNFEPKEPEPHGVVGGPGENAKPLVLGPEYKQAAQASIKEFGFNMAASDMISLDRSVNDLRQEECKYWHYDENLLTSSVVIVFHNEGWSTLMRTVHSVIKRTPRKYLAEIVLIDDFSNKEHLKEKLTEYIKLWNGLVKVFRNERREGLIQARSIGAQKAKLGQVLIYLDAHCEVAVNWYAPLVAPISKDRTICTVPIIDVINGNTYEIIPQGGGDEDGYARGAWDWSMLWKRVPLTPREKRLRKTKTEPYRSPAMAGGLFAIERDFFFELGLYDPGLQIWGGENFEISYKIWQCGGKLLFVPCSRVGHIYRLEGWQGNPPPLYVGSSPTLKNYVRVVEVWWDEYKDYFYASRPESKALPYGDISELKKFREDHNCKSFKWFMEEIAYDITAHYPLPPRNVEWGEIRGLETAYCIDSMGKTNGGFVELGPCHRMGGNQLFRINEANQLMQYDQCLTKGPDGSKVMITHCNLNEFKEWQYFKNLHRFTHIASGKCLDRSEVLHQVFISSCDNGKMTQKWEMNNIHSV
The test is described as follows: Radiolabel capture assay, rppGalNAcT-7. Particulars: MUC5AC glycopeptide. Type of test: biochemical. The protocol:
Radiolabel capture assays using ^14C-labeled UDP-GalNAc were performed as previously described with various concentrations of 1-68A or 2-68A in 2% DMSO. Ten Hagen et al. (2001) J. Biol. Chem. 276:17395-17404.
Table 1. IC50 values for 1-68A and 2-68A with ppGalNAcTs-1 to −5, -7, -10, -11, β1-4GalT and α1-3GalT. The requirement of glycopeptides as substrates for ppGalNAcT-7 and -10 precluded the use of the ELLA, as both the substrate and product bind HPA-HRP. Thus, the radiolabel capture assay was employed to measure the IC50 values of 1-68A and 2-68A with ppGalNAcT-7 and -10 using MUC5AC (GTTPSPVPTTSTTSAP; SEQ ID NO:15) glycopeptide, previously shown to be substrate for both enzymes. Ten Hagen et al. (1999) J. Biol. Chem. 274:27867-27874; and Ten Hagen et al. (2001) J. Biol. Chem. 276:17395-17404. IC50 values of 1-68A and 2-68A with ppGalNAcT-5 were performed with α-FLAG purified enzyme and radiolabel capture assay, due to low activity and stability of the crude enzyme. m=murine, r=rattus.

In test [3] the test system is HEK 293T cells. The test is described as follows: Jacalin staining of O-linked glycans on HEK 293T cells. Type of test: cell-based, human. Particulars: 100 μM, 24 h. On the procedure:
as §1, §2

Turning to `O=c1ccn([C@@H]2O[C@H](CON=Cc3ccc(O)c(O)c3O)[C@@H](O)[C@H]2O)c(=O)[nH]1` [1-68A], the “effect on TUNEL staining compared to untreated cells” value in test [1] is given as “increases”. In test [2], this molecule gave an IC50 of 22 ± 2 µM. For the same molecule, in test [3], the “effect on jacalin staining” value is given as “inhibits”.

`O=C(CON=Cc1ccc(O)c(O)c1O)NC[C@H]1O[C@@H](n2ccc(=O)[nH]c2=O)[C@H](O)[C@@H]1O` [2-68A] registered an IC50 in test [2] of 27 ± 2 µM.
